Columns and labels:
[1] = test system: Serratia marcescens; assay: Oral antimicrobial activity in vivo in the mouse (curative dose CD50), Serratia marcescens infection; parameters: species or system Maus; conditions: peroral dose at which 50% of tested mice survive, read-out: CD50, p.o.
Source text: (§1) Die orale antimikrobielle Wirksamkeit der erwähnten Produkte kann anhand von in-vivo-Versuchen an der Maus nachgewiesen werden. Im nachstehenden bedeutet die kurative Dosis (CD50, p.o., mg/kg) diejenige perorale Dosis, bei der 50% der getesteten Mäuse überleben.
(§2) Ergebnis (CD50, p.o., mg/kg)

[2] = test system: Streptococcus pyogenes; assay: Oral antimicrobial activity in vivo in the mouse (curative dose CD50), Streptococcus pyogenes infection; parameters: species or system Maus; conditions: peroral dose at which 50% of tested mice survive, read-out: CD50, p.o.
Source text: as §1, §2

[3] = in vivo; conditions: mouse, po
[4] = test system: Klebsiella pneumoniae; assay: Oral antimicrobial activity in vivo in the mouse (curative dose CD50), Klebsiella pneumoniae infection; parameters: species or system Maus; conditions: peroral dose at which 50% of tested mice survive, read-out: CD50, p.o.
Source text: as §1, §2

[5] = test system: Escherichia coli; assay: Oral antimicrobial activity in vivo in the mouse (curative dose CD50), Escherichia coli infection; parameters: species or system Maus; conditions: peroral dose at which 50% of tested mice survive, read-out: CD50, p.o.
Source text: as §1, §2

CCOC(=O)c1nc(SCC2=C(C(=O)OCOC(=O)C(C)(C)C)N3C(=O)[C@@H](NC(=O)/C(=N\OC)c4csc(N)n4)[C@H]3SC2)n(C)n1 [Produkt B]
ED50 [1]: 0.8 mg/kg | ED50 [2]: 2.1 mg/kg | LD50 at 24 h [3]: > 5000 mg/kg

CCn1nc(C(=O)OC)nc1SCC1=C(C(=O)OCOC(=O)C(C)(C)C)N2C(=O)[C@@H](NC(=O)/C(=N\OC)c3csc(N)n3)[C@H]2SC1 [Produkt C, Methylen-(6R,7R)-7-[(Z)-2-(2-Amino-4-thiazolyl)-2-(methoxyimino)acetamido]-3-[[[2-äthyl-5-(methoxycarbonyl)-2H-1,2,4-triazol-3-yl]thio]methyl]-8-oxo-5-thia-2-azabicyclo[4.2.0]oct-2-en-2-carboxylat-pivalat]
ED50 [1]: 2.54 mg/kg | ED50 [2]: 0.53 mg/kg

CO/N=C(\C(=O)N[C@@H]1C(=O)N2C(C(=O)OCOC(=O)C(C)(C)C)=C(CSc3nc(C(=O)OC)nn3CC(=O)OCOC(=O)C(C)(C)C)CS[C@H]12)c1csc(N)n1 [Produkt D, Methylen-(6R,7R)-7-[(Z)-2-(2-Amino-4-thiazolyl)-2-(methoxyimino)-acetamido]-3-[[[5-(methoxycarbonyl)-2-[[[(pivaloyloxy)methoxy]-carbonyl]methyl]-2H-1,2,4-triazol-3-yl]thio]-methyl]-8-oxo-5-thia-1-azabicyclo[4.2.0]oct-2-en-2-carboxylat-pivalat]
ED50 [1]: > 6 mg/kg | ED50 [4]: 12.5 mg/kg | ED50 [2]: 8.8 mg/kg | LD50 at 24 h [3]: > 5000 mg/kg

CC1=C(C(=O)O)N2C(=O)[C@@H](NC(=O)[C@H](N)c3ccccc3)[C@H]2SC1 [Cephalexin, reference compound]
ED50 [5]: 3.2 mg/kg | ED50 [1]: > 50 mg/kg | ED50 [2]: 1.8 mg/kg

CO/N=C(\C(=O)N[C@@H]1C(=O)N2C(C(=O)OCOC(=O)C(C)(C)C)=C(CSc3nc(C(=O)OC)nn3C)CS[C@H]12)c1csc(N)n1 [Produkt A]
ED50 [5]: 0.07 mg/kg | ED50 [1]: 1.5 mg/kg | ED50 [4]: 3.7 mg/kg | ED50 [2]: 0.72 mg/kg | LD50 at 24 h [3]: > 5000 mg/kg

CO/N=C(\C(=O)N[C@@H]1C(=O)N2C(C(=O)OCOC(=O)C(C)(C)C)=C(CSc3nc(C(=O)OC)nn3-c3ccccc3)CS[C@H]12)c1csc(N)n1 [Produkt F]
ED50 [1]: 5.8 mg/kg | ED50 [4]: > 12 mg/kg | ED50 [2]: 1.5 mg/kg | LD50 at 24 h [3]: > 5000 mg/kg

CCCn1nc(C(=O)OC)nc1SCC1=C(C(=O)OCOC(=O)C(C)(C)C)N2C(=O)[C@@H](NC(=O)/C(=N\OC)c3csc(N)n3)[C@H]2SC1 [Produkt E]
ED50 [5]: 0.04 mg/kg | ED50 [1]: 1.8 mg/kg | ED50 [4]: 2.5 mg/kg | ED50 [2]: 0.89 mg/kg | LD50 at 24 h [3]: > 5000 mg/kg

— EP0075095A2, “Cephalosporin derivatives, process for their preparation, pharmaceutical compositions containing them and intermediates” (F. HOFFMANN-LA ROCHE & CO. Aktiengesellschaft, priority 1981, dated 1983)
